Experimental data as given in PubChem BioAssay AID1963840 (Molecular Pharmacology Branch, DTP, NCI, 2024).

System: 695427-040-R-J1-PDC complex spheroid viability
Assay: Anticancer human tumor 695427-040-R-J1-PDC patient-derived colon adenocarcinoma cell line growth inhibition [POLQ]
Conditions: for IC50: curve of first compound; for viability, T/C: stronger effect = lower value
Procedure: Multicellular complex tumor spheroid response to Polymerase (POL) inhibitors (novobiocin, ART-558, RP6685) in combination with a variety of drugs and investigational agents in selected tumor cell lines
The POL inhibitors (novobiocin, ART-558, and RP6685) were evaluated both individually and in combination with standard of care and investigational anticancer small molecules within a complex spheroid model of solid tumors. . Complex spheroids include a stromal component modeled by human endothelial cells (HUVEC) and fibroblasts modeled by human mesenchymal stem cells (MSCs). The concentration ranges selected for each drug and investigational agent were based upon clinically achievable concentrations if the clinical Cmax of the agent was known.
Compounds. The drugs and investigational agents: novobiocin (NSC847541), ART-558 (NSC835418), RP-6685 (NSC848927), peposertib (NSC802822), ceralasertib (NSC780249), elimusertib (NSC800525), camonsertib (NSC841442), AZD-1390 (NSC803789), olaparib (NSC753686), talazoparib (NSC767125), rucaparib (NSC756644), sotorasib (NSC818433), MRTX-1133 (NSC836407), SN-38 (NSC673596), topotecan (NSC609699), epotoside (NSC141540), doxorubicin (NSC123127), gemcitabine (NSC613327), 5-fluorouracil (NSC19893), paclitaxel (NSC125973), vemurafenib (NSC761431), MSA-2 (NSC828583), SN-011 (NSC837082), adavosertib (NSC754352), prexasertib (NSC758257), carboplatin (NSC241240) and oxaliplatin (NSC266046), were obtained from the National Cancer Institute (NCI) Developmental Therapeutics Program Chemical Repository (21). The FDA-approved anticancer drug set is available from the Developmental Therapeutics Program at https://dtp.cancer.gov/organization/dscb/obtaining/. […] The stock solutions were prepared in dimethyl sulfoxide (DMSO, Sigma-Aldrich, St. Louis, MO, cat. D2650), except for the platinum compounds which were prepared in saline (Quality Biological, Gaithersburg, MD, cat. 114-055-101), at 800-fold the tested concentration and stored at -70 degrees C prior to their use. All drugs and investigational agents were tested over a range starting from a high concentration at or near the clinical Cmax and decreasing in half-log increments. If the clinical Cmax for an agent had not been determined, the highest concentration tested was 10 microM, except for SN-38, which was tested at a high concentration of 1 microM.
Cell Culture. All cells were maintained in an incubator at 37 degrees C and 5% CO2 with 95% humidity. The PDC lines were cultured according to standard operating procedures established by the NCI PDMR (https://pdmr.cancer.gov). Table 3 of the manuscript, lists the cell lines along with the number of the three cell types plated to form the mct-spheroids and media for tumor cell growth. After thawing, all PDC lines, except 997537-175-T-J1-PDC and 415267-285-R-J2-PDC, were cultured in Matrigel-coated flasks prepared with a working solution of 1X Ham's F-12 nutrient mix, without supplementation (Thermo Fisher Scientific, cat. 11765054), 100 U/mL penicillin-streptomycin (Thermo Fisher Scientific, cat. 15140122), and 2.5% Matrigel (Corning Inc., Corning, NY, cat. 354248) for the first three passages. The two PDC lines 997537-175-T-J1-PDC and 415267-285-R-J2-PDC were cultured on uncoated flasks. The 857933-349-R-J2-PDC line was cultured in 6C/Colon 1B media containing advanced DMEM/F-12 (Thermo Fisher Scientific, cat. 12634028), 10 mM HEPES (Thermo Fisher Scientific, cat. 15630080), 1X GlutaMAX supplement (Thermo Fisher Scientific, cat. 35050061), 0.1 mg/mL primocin (InvivoGen, San Diego, CA, cat. ant-pm-2), 10% defined fetal bovine serum, heat inactivated (HyClone Laboratories Inc., Logan, UT, cat. SH30070.03HI), 50% L-WRN conditioned media (ATCC, cat. CRL-3276), 1.25 mM N-Acetyl-L-cysteine (Sigma-Aldrich, cat. A9165), 10 mM nicotinamide (Sigma-Aldrich, cat. N0636), 1X B-27 supplement (Thermo Fisher Scientific, cat. 17504044), 1X N-2 supplement (Thermo Fisher Scientific, cat. […]
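Note: spheroids exposed to compounds for seven days.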
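Throughout, for viability, T/C: 100% = DMSO vehicle control viability.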

`CC1COCCN1c1cc(-c2ccnn2C)c2ccnc(-c3ccn[nH]3)c2n1` (configuration not stated) + COC1C(OC(N)=O)C(O)C(Oc2ccc3c(O)c(NC(=O)c4ccc(O)c(CC=C(C)C)c4)c(=O)oc3c2C)OC1(C)C showed an IC50 (second compound 0.0316 µM) of 1210 nM, an IC50 (second compound 0.1 µM) of 1130 nM and an IC50 (second compound 0.316 µM) of 1560 nM. It also gave an IC50 (second compound 1 µM) of 748 nM, an IC50 (second compound 3.16 µM) of 1210 nM and an IC50 (second compound 10 µM) of 1470 nM. For the same compound, the viability, T/C (second compound 0.0316 µM, first compound 0.0316 µM) was 97.2%, the viability, T/C (second compound 0.0316 µM, first compound 0.1 µM) was 83.3% and the viability, T/C (second compound 0.0316 µM, first compound 0.316 µM) was 63.5%. It also gave a viability, T/C (second compound 0.0316 µM, first compound 1 µM) of 50.3%, a viability, T/C (second compound 0.0316 µM, first compound 3.16 µM) of 47% and a viability, T/C (second compound 0.0316 µM, first compound 10 µM) of 44.8%. It also gave a viability, T/C (second compound 0.1 µM, first compound 0.0316 µM) of 97.5%, a viability, T/C (second compound 0.1 µM, first compound 0.1 µM) of 81.1% and a viability, T/C (second compound 0.1 µM, first compound 0.316 µM) of 64.2%. For the same compound, the viability, T/C (second compound 0.1 µM, first compound 1 µM) was 49.9%, the viability, T/C (second compound 0.1 µM, first compound 3.16 µM) was 44.3% and the viability, T/C (second compound 0.1 µM, first compound 10 µM) was 44.7%. It also gave a viability, T/C (second compound 0.316 µM, first compound 0.0316 µM) of 104%, a viability, T/C (second compound 0.316 µM, first compound 0.1 µM) of 79.7% and a viability, T/C (second compound 0.316 µM, first compound 0.316 µM) of 61.4%. The viability, T/C (second compound 0.316 µM, first compound 1 µM) was 51.2%, the viability, T/C (second compound 0.316 µM, first compound 3.16 µM) was 48.5% and the viability, T/C (second compound 0.316 µM, first compound 10 µM) was 44.6%. The viability, T/C (second compound 1 µM, first compound 0.0316 µM) was 93.5%, the viability, T/C (second compound 1 µM, first compound 0.1 µM) was 85.9% and the viability, T/C (second compound 1 µM, first compound 0.316 µM) was 58.2%. It also gave a viability, T/C (second compound 1 µM, first compound 1 µM) of 49.4%, a viability, T/C (second compound 1 µM, first compound 3.16 µM) of 46.6% and a viability, T/C (second compound 1 µM, first compound 10 µM) of 41.8%. For the same compound, the viability, T/C (second compound 3.16 µM, first compound 0.0316 µM) was 95.8%, the viability, T/C (second compound 3.16 µM, first compound 0.1 µM) was 86.8% and the viability, T/C (second compound 3.16 µM, first compound 0.316 µM) was 63.3%. For the same compound, the viability, T/C (second compound 3.16 µM, first compound 1 µM) was 52.1%, the viability, T/C (second compound 3.16 µM, first compound 3.16 µM) was 47.6% and the viability, T/C (second compound 3.16 µM, first compound 10 µM) was 44.7%. The viability, T/C (second compound 10 µM, first compound 0.0316 µM) was 90.8%, the viability, T/C (second compound 10 µM, first compound 0.1 µM) was 80.6% and the viability, T/C (second compound 10 µM, first compound 0.316 µM) was 65.9%. For the same compound, the viability, T/C (second compound 10 µM, first compound 1 µM) was 47.5%, the viability, T/C (second compound 10 µM, first compound 3.16 µM) was 51% and the viability, T/C (second compound 10 µM, first compound 10 µM) was 46.2%.
